Source: patent US6806275B2, “Arylpiperidine derivatives and use thereof” (Nihon Nohyaku Co., Ltd., priority 1998, dated 2004)

Experiments:
[1] = molecular target: T1, human D4.2 receptor (Homo sapiens, UniProt P21917, DEL265-296); experiment: Dopamine D4 receptor binding assay ([3H]spiperone); details: CHO cell membrane expressing human D4.2 receptor; [3H]spiperone 0.5 nM; 27° C., 2 hours
T1 construct: expressed in transfected cells; host or cells: CHO cells (membrane preparation)
T1 sequence (P21917 with tags, fused parts or gaps DEL265-296): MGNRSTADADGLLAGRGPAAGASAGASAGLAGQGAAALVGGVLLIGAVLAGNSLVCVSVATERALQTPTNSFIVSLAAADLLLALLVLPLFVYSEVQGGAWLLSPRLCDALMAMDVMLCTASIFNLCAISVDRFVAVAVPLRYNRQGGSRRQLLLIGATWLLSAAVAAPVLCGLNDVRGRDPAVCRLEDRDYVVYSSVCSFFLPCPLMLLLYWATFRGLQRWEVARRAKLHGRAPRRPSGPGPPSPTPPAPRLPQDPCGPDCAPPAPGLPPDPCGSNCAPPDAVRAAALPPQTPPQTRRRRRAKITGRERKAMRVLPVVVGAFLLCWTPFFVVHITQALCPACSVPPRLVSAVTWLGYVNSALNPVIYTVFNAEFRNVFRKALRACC
Procedure: 1. Dopamine D4 Receptor Binding Assay
Chinese hamster ovarium (CHO) cell membrane wherein human D4.2 receptor was expressed was used as a receptor preparation.
[^3H] spiperone was used as a [^3H]-labeled ligand.
Human D4.2 receptor binding assay: The (CHO) cell membrane wherein human D4.2 receptor was expressed, [^3H] spiperone (0.5 nM) and each test drug were incubated at 27° C. for 2 hours in 50 mM Tris-hydrochloric acid buffer (pH 7.4) containing 5 mM EDTA, 1.5 mM calcium chloride, 5 mM potassium chloride and 120 mM sodium chloride.
(§1) After completion of the reaction, the reaction mixture was filtered by suction through a glass filter (GF/B), and radioactivity in the filter paper was measured with a liquid scintillation spectrometer.
Binding under the reaction of [^3H] spiperone carried out in the presence of 10 μM haloperidol was defined as nonspecific binding of [^3H] spiperone, and the difference between the total binding and the nonspecific binding was defined as specific binding.

[2] = molecular target: T2, Dopamine D2 receptor (rat striatum membrane) (Rattus norvegicus, UniProt P61169); experiment: Dopamine D2 receptor binding assay ([3H]raclopride); details: [3H]raclopride 1 nM, 25° C., 1 hour
T2 construct: Rat striatum was homogenized in 50 mM Tris-hydrochloric acid buffer (pH 7.4); from tissue; host or cells: rat striatum
Procedure: 2. Dopamine D2 Receptor Binding Assay
Rat striatum membrane was used as a receptor preparation.
[^3H] raclopride was used as a [^3H]-labeled ligand.
Preparation of the receptor preparation: Rat striatum was homogenized in 50 mM Tris-hydrochloric acid buffer (pH 7.4), and the homogenate was centrifuged at 48,000×g and the pellet was washed once with Tris-hydrochloric acid buffer. The washed pellet was suspended in 50 mM Tris-hydrochloric acid buffer (pH 7.4) containing 120 mM sodium chloride, 5 mM potassium chloride, 2 mM calcium chloride and 1 mM magnesium chloride, to obtain a membrane preparation.
Dopamine D2 receptor binding assay: The membrane preparation (0.5 mg protein/ml), [^3H] raclopride (1 nM) and each test drug were incubated at 25° C. for 1 hour.
as §1
Binding under the reaction of [^3H] raclopride carried out in the presence of 10 μM haloperidol was defined as nonspecific binding of [^3H] lacropirido, and the difference between the total binding and the nonspecific binding was defined as specific binding.

T2 sequence (P61169 whole entry): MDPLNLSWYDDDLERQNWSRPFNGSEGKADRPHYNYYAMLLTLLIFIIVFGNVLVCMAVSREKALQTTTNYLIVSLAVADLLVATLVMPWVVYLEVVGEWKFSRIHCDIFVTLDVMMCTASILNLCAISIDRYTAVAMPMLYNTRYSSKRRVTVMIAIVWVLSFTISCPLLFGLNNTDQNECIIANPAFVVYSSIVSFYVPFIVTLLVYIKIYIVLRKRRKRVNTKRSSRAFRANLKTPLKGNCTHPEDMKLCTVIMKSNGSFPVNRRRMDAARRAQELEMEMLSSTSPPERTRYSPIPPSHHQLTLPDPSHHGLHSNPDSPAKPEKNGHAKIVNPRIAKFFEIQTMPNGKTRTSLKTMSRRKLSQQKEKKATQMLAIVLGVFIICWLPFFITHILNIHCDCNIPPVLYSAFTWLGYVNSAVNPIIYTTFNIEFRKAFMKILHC

With Cc1nc(-c2ccc(F)cc2)c(CCN2CCC(c3c[nH]c4ccccc34)CC2)s1 [B-11] the IC50 [1] was 0.4 nM, the IC50 [2] was 26.6 nM and the melting point was 165 to 167 °C.
For CSc1nc(-c2ccc(F)cc2)c(CCN2CCC(n3nnc4cc(F)ccc43)CC2)[nH]1 [C-03, 2-methylthio-4-(4-fluorophenyl)-5-[2-[4-(5-fluoro-1H-benzotriazol-1-yl)piperidin-1-yl]ethyl]imidazole], the melting point was 223 to 224 °C.
Work on Oc1nc(-c2ccc(F)cc2)c(CCN2CCC(c3coc4cc(F)ccc34)CC2)s1 [B-06, 2-hydroxy-4-(4-fluorophenyl)-5-[2-[4-(6-fluorobenzofuran-3-yl)piperidin-1-yl]ethyl]thiazole] yielded a melting point of 186 to 188 °C.
In the case of Fc1ccc(-c2ncncc2CCN2CCC(c3csc4cc(F)ccc34)CC2)cc1 [Example 11, 6-(4-fluorophenyl)-5-[2-[4-(6-fluorobenzo[b]thiophen-3-yl)piperidin-1-yl]ethyl]pyrimidine], the melting point is reported as 123 to 124 °C.
For Nc1nc(-c2ccc(F)cc2)c(CCN2CCC(n3cnc4cc(F)ccc43)CC2)s1 [B-25], the IC50 [1] was 32 nM, the IC50 [2] was over 1000 nM and the melting point was 282 to 284 °C.
Compound Nc1nc(-c2ccc(F)cc2)c(CCN2CCC(c3c[nH]c4ccccc34)CC2)s1 [B-09] has an IC50 [1] of 2 nM, an IC50 [2] of 81.1 nM and a melting point of 203 to 203.5 °C.
In the case of Cc1nc(-c2ccc(F)cc2)c(CCN2CCC(n3nnc4cc(F)ccc43)CC2)s1 [B-29], the IC50 [1] is reported as 2.4 nM, the IC50 [2] is reported as 206 nM and the melting point is reported as 145 to 146 °C.
In the case of Fc1ccc(-c2[nH]ncc2CCN2CCC(c3csc4cc(F)ccc34)CC2)cc1 [Example 10, 5-(4-fluorophenyl)-4-[2-[4-(6-fluorobenzo[b]thiophen-3-yl)piperidin-1-yl]ethyl]pyrazole], the melting point is reported as 162 to 163 °C.
In the case of Nc1nc(-c2ccc(F)cc2)c(CCN2CCC(n3nnc4cc(F)ccc43)CC2)s1 [B-26, 2-amino-4-(4-fluorophenyl)-5-[2-[4-(5-fluoro-1H-benzotriazol-1-yl)piperidin-1-yl]ethyl]thiazole], the IC50 [1] is reported as 5.5 nM and the IC50 [2] is reported as 298 nM.
Work on Nc1nc(-c2ccc(F)cc2)c(CCN2CCC(c3coc4cc(F)ccc34)CC2)s1 [B-01, 2-amino-4-(4-fluorophenyl)-5-[2-[4-(6-fluorobenzofuran-3-yl)piperidin-1-yl]ethyl]thiazole] yielded an IC50 [1] of 3.1 nM and an IC50 [2] of 67.3 nM.
